Measurements taken from ChEMBL document CHEMBL1201862, “PubChem BioAssay data set” (2004).
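Grown in 96-well plates, cells were treated for 48 hours with each compound at five concentrations. Insufficient inhibition: endpoint recorded as highest concentration tested. At the GI50, growth is halved.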 Active and inactive are the calls of the source. No stated cut-off is given here; in the data, active = GI50 up to about 1.1 µM and inactive = higher.

Experiments:
Experiment in all cases: DTP human tumour cell line panel, 48 h
M14 = test system: M14
OVCAR-8 = test system: OVCAR-8
HL-60 = test system: HL-60
SNB-19 = test system: SNB-19
CCRF-CEM = test system: CCRF-CEM
SK-MEL-2 = test system: SK-MEL-2
BT-549 = test system: BT-549
SW-620 = test system: SW-620
T47D = test system: T47D
SF-539 = test system: SF-539
IGROV-1 = test system: IGROV-1
A549 = test system: A549
NCI/ADR-RES = test system: NCI/ADR-RES
SN12C = test system: SN12C
SNB-75 = test system: SNB-75
Hs-578T = test system: Hs-578T
NCI-H226 = test system: NCI-H226
ACHN = test system: ACHN
A498 = test system: A498
MCF7 = test system: MCF7
COLO 205 = test system: COLO 205
UACC-62 = test system: UACC-62
NCI-H23 = test system: NCI-H23
MDA-MB-435 = test system: MDA-MB-435
786-0 = test system: 786-0
HOP-62 = test system: HOP-62
TK-10 = test system: TK-10
HOP-92 = test system: HOP-92
MDA-MB-231 = test system: MDA-MB-231
SF-268 = test system: SF-268
LOX IMVI = test system: LOX IMVI
SK-OV-3 = test system: SK-OV-3
UO-31 = test system: UO-31
NCI-H460 = test system: NCI-H460
DU-145 = test system: DU-145
UACC-257 = test system: UACC-257
OVCAR-4 = test system: OVCAR-4
K562 = test system: K562
SK-MEL-5 = test system: SK-MEL-5
HCT-15 = test system: HCT-15
U-251 = test system: U-251
OVCAR-5 = test system: OVCAR-5
RPMI-8226 = test system: RPMI-8226
HCT-116 = test system: HCT-116
RXF 393 = test system: RXF 393
PC-3 = test system: PC-3
HT-29 = test system: HT-29
SK-MEL-28 = test system: SK-MEL-28
OVCAR-3 = test system: OVCAR-3
MOLT-4 = test system: MOLT-4
KM12 = test system: KM12
NCI-H522 = test system: NCI-H522
HCC 2998 = test system: HCC 2998
CAKI-1 = test system: CAKI-1
SF-295 = test system: SF-295
EKVX = test system: EKVX
SR = test system: SR
Malme-3M = test system: Malme-3M

For `COc1ccc(/C=C2\N=C(SC)N(C)C2=O)cc1`, the GI50 (M14) was 82.6 µM (inactive), the GI50 (OVCAR-8) was > 100 µM (inactive) and the GI50 (HL-60) was 27.5 µM (inactive). For the same molecule, the GI50 (SNB-19) was > 100 µM (inactive), the GI50 (CCRF-CEM) was > 100 µM (inactive) and the GI50 (SK-MEL-2) was > 100 µM (inactive). The GI50 (BT-549) was > 100 µM (inactive), the GI50 (SW-620) was 80.2 µM (inactive) and the GI50 (T47D) was 42.6 µM (inactive). The GI50 (SF-539) was 92 µM (inactive), the GI50 (IGROV-1) was 48 µM (inactive) and the GI50 (A549) was 63.2 µM (inactive). The GI50 (NCI/ADR-RES) was 86.9 µM (inactive), the GI50 (SN12C) was 71.6 µM (inactive) and the GI50 (SNB-75) was 41.6 µM (inactive). For the same molecule, the GI50 (Hs-578T) was 22.8 µM (inactive), the GI50 (NCI-H226) was 47.3 µM (inactive) and the GI50 (ACHN) was 38.8 µM (inactive). The GI50 (A498) was 37.8 µM (inactive), the GI50 (MCF7) was 49.4 µM (inactive) and the GI50 (COLO 205) was 94.6 µM (inactive). The GI50 (UACC-62) was 70.3 µM (inactive), the GI50 (NCI-H23) was > 100 µM (inactive) and the GI50 (MDA-MB-435) was 51.4 µM (inactive). The GI50 (786-0) was 68.7 µM (inactive), the GI50 (HOP-62) was 96.8 µM (inactive) and the GI50 (TK-10) was > 100 µM (inactive). The GI50 (HOP-92) was > 100 µM (inactive), the GI50 (MDA-MB-231) was 41.2 µM (inactive) and the GI50 (SF-268) was 28.1 µM (inactive). The GI50 (LOX IMVI) was 75.2 µM (inactive), the GI50 (SK-OV-3) was 97.9 µM (inactive) and the GI50 (UO-31) was 27 µM (inactive). The GI50 (NCI-H460) was 99.1 µM (inactive), the GI50 (DU-145) was > 100 µM (inactive) and the GI50 (UACC-257) was > 100 µM (inactive). The GI50 (OVCAR-4) was 39.6 µM (inactive), the GI50 (K562) was 50.9 µM (inactive) and the GI50 (SK-MEL-5) was 42.3 µM (inactive). For the same molecule, the GI50 (HCT-15) was 64.3 µM, the GI50 (U-251) was 89.7 µM (inactive) and the GI50 (OVCAR-5) was 95.7 µM (inactive). For the same molecule, the GI50 (RPMI-8226) was 50 µM (inactive), the GI50 (HCT-116) was 75.2 µM (inactive) and the GI50 (RXF 393) was > 100 µM (inactive). The GI50 (PC-3) was 40.9 µM (inactive), the GI50 (HT-29) was 46.1 µM (inactive) and the GI50 (SK-MEL-28) was > 100 µM (inactive). For the same molecule, the GI50 (OVCAR-3) was 46.1 µM (inactive).
For `COc1ccc2c(c1)C(N)CC2=O` (stereo unspecified), the GI50 (M14) was > 100 µM (inactive), the GI50 (OVCAR-8) was > 100 µM (inactive) and the GI50 (SNB-19) was > 100 µM (inactive). For the same molecule, the GI50 (CCRF-CEM) was > 100 µM (inactive), the GI50 (SK-MEL-2) was 27 µM (inactive) and the GI50 (BT-549) was > 100 µM (inactive). For the same molecule, the GI50 (SW-620) was > 100 µM (inactive), the GI50 (T47D) was > 100 µM (inactive) and the GI50 (SF-539) was > 100 µM (inactive). For the same molecule, the GI50 (MOLT-4) was > 100 µM (inactive), the GI50 (IGROV-1) was > 100 µM (inactive) and the GI50 (A549) was 19.1 µM (inactive). For the same molecule, the GI50 (NCI/ADR-RES) was > 100 µM (inactive), the GI50 (SN12C) was > 100 µM (inactive) and the GI50 (SNB-75) was > 100 µM (inactive). The GI50 (Hs-578T) was > 100 µM (inactive), the GI50 (KM12) was > 100 µM (inactive) and the GI50 (NCI-H226) was > 100 µM (inactive). For the same molecule, the GI50 (ACHN) was > 100 µM (inactive), the GI50 (A498) was > 100 µM (inactive) and the GI50 (MCF7) was > 100 µM (inactive). For the same molecule, the GI50 (COLO 205) was > 100 µM (inactive), the GI50 (UACC-62) was > 100 µM (inactive) and the GI50 (NCI-H23) was > 100 µM (inactive). The GI50 (MDA-MB-435) was > 100 µM (inactive), the GI50 (786-0) was > 100 µM (inactive) and the GI50 (HOP-62) was > 100 µM (inactive). For the same molecule, the GI50 (TK-10) was > 100 µM (inactive), the GI50 (HOP-92) was > 100 µM (inactive) and the GI50 (MDA-MB-231) was > 100 µM (inactive). For the same molecule, the GI50 (SF-268) was > 100 µM (inactive), the GI50 (SK-OV-3) was > 100 µM (inactive) and the GI50 (UO-31) was > 100 µM (inactive). The GI50 (NCI-H522) was > 100 µM (inactive), the GI50 (DU-145) was > 100 µM (inactive) and the GI50 (UACC-257) was > 100 µM (inactive). For the same molecule, the GI50 (OVCAR-4) was > 100 µM (inactive), the GI50 (K562) was > 100 µM (inactive) and the GI50 (SK-MEL-5) was > 100 µM (inactive). The GI50 (HCT-15) was > 100 µM, the GI50 (HCC 2998) was > 100 µM (inactive) and the GI50 (CAKI-1) was > 100 µM (inactive). For the same molecule, the GI50 (SF-295) was > 100 µM (inactive), the GI50 (EKVX) was > 100 µM (inactive) and the GI50 (U-251) was > 100 µM (inactive). For the same molecule, the GI50 (OVCAR-5) was > 100 µM (inactive), the GI50 (RPMI-8226) was > 100 µM (inactive) and the GI50 (HCT-116) was > 100 µM (inactive). For the same molecule, the GI50 (RXF 393) was 19 µM (inactive), the GI50 (PC-3) was 18.9 µM (inactive) and the GI50 (HT-29) was > 100 µM (inactive). The GI50 (SK-MEL-28) was > 100 µM (inactive) and the GI50 (OVCAR-3) was > 100 µM (inactive).
In the case of `CNn1c(-c2ccc(C)cc2)n[nH]c1=O`, the GI50 (M14) was > 100 µM (inactive), the GI50 (OVCAR-8) was > 100 µM (inactive) and the GI50 (SNB-19) was > 100 µM (inactive). The GI50 (CCRF-CEM) was 92 µM (inactive), the GI50 (SK-MEL-2) was > 100 µM (inactive) and the GI50 (BT-549) was > 100 µM (inactive). For the same molecule, the GI50 (SW-620) was > 100 µM (inactive), the GI50 (T47D) was > 100 µM (inactive) and the GI50 (SF-539) was > 100 µM (inactive). For the same molecule, the GI50 (MOLT-4) was > 100 µM (inactive), the GI50 (IGROV-1) was > 100 µM (inactive) and the GI50 (A549) was > 100 µM (inactive). For the same molecule, the GI50 (NCI/ADR-RES) was > 100 µM (inactive), the GI50 (SN12C) was > 100 µM (inactive) and the GI50 (Hs-578T) was > 100 µM (inactive). For the same molecule, the GI50 (KM12) was > 100 µM (inactive), the GI50 (NCI-H226) was > 100 µM (inactive) and the GI50 (ACHN) was > 100 µM (inactive). The GI50 (A498) was > 100 µM (inactive), the GI50 (MCF7) was > 100 µM (inactive) and the GI50 (COLO 205) was > 100 µM (inactive). The GI50 (UACC-62) was > 100 µM (inactive), the GI50 (NCI-H23) was > 100 µM (inactive) and the GI50 (MDA-MB-435) was > 100 µM (inactive). For the same molecule, the GI50 (786-0) was > 100 µM (inactive), the GI50 (HOP-62) was > 100 µM (inactive) and the GI50 (TK-10) was > 100 µM (inactive). The GI50 (HOP-92) was > 100 µM (inactive), the GI50 (MDA-MB-231) was > 100 µM (inactive) and the GI50 (SF-268) was > 100 µM (inactive). The GI50 (LOX IMVI) was > 100 µM (inactive), the GI50 (SR) was 68.5 µM (inactive) and the GI50 (SK-OV-3) was > 100 µM (inactive). For the same molecule, the GI50 (UO-31) was > 100 µM (inactive), the GI50 (NCI-H460) was > 100 µM (inactive) and the GI50 (NCI-H522) was > 100 µM (inactive). The GI50 (UACC-257) was > 100 µM (inactive), the GI50 (OVCAR-4) was > 100 µM (inactive) and the GI50 (K562) was 55.8 µM (inactive). For the same molecule, the GI50 (SK-MEL-5) was > 100 µM (inactive), the GI50 (HCT-15) was > 100 µM and the GI50 (HCC 2998) was > 100 µM (inactive). For the same molecule, the GI50 (CAKI-1) was > 100 µM (inactive), the GI50 (SF-295) was > 100 µM (inactive) and the GI50 (Malme-3M) was > 100 µM (inactive). For the same molecule, the GI50 (EKVX) was > 100 µM (inactive), the GI50 (U-251) was > 100 µM (inactive) and the GI50 (OVCAR-5) was > 100 µM (inactive). The GI50 (RPMI-8226) was > 100 µM (inactive), the GI50 (HCT-116) was > 100 µM (inactive) and the GI50 (RXF 393) was > 100 µM (inactive). For the same molecule, the GI50 (PC-3) was > 100 µM (inactive), the GI50 (HT-29) was > 100 µM (inactive) and the GI50 (OVCAR-3) was > 100 µM (inactive).
